Key:
[1] = DPPH radical scavenging activity assay; conditions: for Inhibitory rate (%), DPPH (Table S4): Table S4, concentration not given; for DPPH Inhibitory Rate (%): concentration 200 μM
Method: The DPPH radical scavenging capacity was measured according to the following reference at room temperature (25 °C). Briefly, 320 μL sample in DMSO with different concentrations (400, 200, 100, 50, 25, 12.5 μM) was reacted with 320 μL DPPH reagent (0.1 mM) in 1.5 mL centrifuge tube away from light for 30 min. Next, 200 μL of the mixture was transferred into a 96-well plate, which was used for measuring the absorbance at 517 nm (ODsample). A control (ODcontrol) and blank (ODblank) were, respectively, established from the mixture solutions of the sample in DMSO and ethanol and the mixture solution of DMSO and DPPH reagent. Vitamin C was the positive control, with the same concentration as the compounds. The DPPH radical scavenging capacity was calculated according to the following:DPPH radical scavenging capacity (%) = [1 − (ODsample − ODcontrol)/ODblank] × 100%

[2] = ABTS radical scavenging activity assay; conditions: for Inhibitory rate (%), ABTS (Table S4): Table S4, concentration not given; for ABTS Inhibitory Rate (%): concentration 200 μM, "-" not active
Method: The ABTS radical scavenging activity was examined as previously reported at room temperature (25 °C). Briefly, 160 μL sample in DMSO with different concentrations (800, 400, 200, 100, 50, 25 μM) was reacted with 480 μL ABTS reagent in a 1.5 mL centrifuge tube away from light for 6 min. Next, 200 μL of the mixture was taken out and transferred into a 96-well plate, which was used for measuring the absorbance by a microplate reader at 734 nm (ODsample). The control (ODcontrol) and blank (ODblank) were, respectively, established from the mixture solutions of the sample in DMSO and water and the mixture solution of DMSO and ABTS reagent. Trolox was the positive control, with the same concentration with compounds. The ABTS radical scavenging capacity was calculated as following:ABTS radical scavenging capacity (%) = [1 − (ODsample − ODcontrol)/ODblank] × 100%

[3] = tested on: B16 cells; experiment: Measurement of melanin produced by B16 cells; type: cell-based; conditions: 150 μM, compared with positive control kojic acid; concentration dependent
Method: (§1) B16 melanoma cells (PNS-MC-36) were purchased from Procell Life Science & Technology Co., Ltd. (Wuhan, China).
B16 cells were seeded into 96-well plates with […], and incubated at 37 °C, 5% CO2, and 90% humidity for 24 h. Having removed the supernatant, 100 μL samples with different concentrations were added. Medium without the sample was added as the blank. After incubation for another 72 h, the cells were dissolved in 100 μL of 2 N NaOH, and then incubated at 80 °C. The absorbance (OD) was measured at 450 nm.

[4] = tested on: B16 cells; experiment: MTT assay for cell viability; type: cell-based; conditions: under the selected concentrations
Method: as §1
A modified MTT method was applied to screen cell viability. B16 cells were cultured in 96-well plates and mixed with different concentrations of the sample after 24 h. After having been incubated for another 72 h, MTT solution was added to form formazan, which was followed by dissolved in 100 μL DMSO, and then the absorbance (OD) was measured at 490 nm. Cell viability was calculated as percent changes relative to control.

[5] = DPPH radical scavenging activity assay; conditions: concentration 100 μg/mL
[6] = ABTS radical scavenging activity assay; conditions: concentration 100 μg/mL

Structure (SMILES)	Inhibitory rate (%), DPPH (Table S4) [1]	DPPH Inhibitory Rate (%) [1]	ABTS IC50 ± SD [2]	Inhibitory rate (%), ABTS (Table S4) [2]	ABTS Inhibitory Rate (%) [2]	Melanin production inhibition activity in B16 cells [3]	Toxicity to B16 cells [4]	DPPH IC50 ± SD [1]	DPPH free radical scavenging rate [5]	ABTS free radical scavenging rate [6]
COc1cc(CC(O)C(O)CC2OC(CC(O)C(O)Cc3ccc(O)c(OC)c3)C3C(c4cc(OC)c(O)c(OC)c4)OC(c4cc(OC)c(O)c(OC)c4)C23)ccc1O (centres unmarked) [Compound 1, Aloxy A]	50.74 ± 2.31%	50.74 ± 2.31 %	39.59 ± 0.53 mg/L	91.09 ± 0.55%	91.09 ± 0.55 %	stronger inhibitory effects than positive control (kojic acid)	no toxicity			
COC(=O)C1OC(Oc2c(-c3ccc(O)cc3)oc3cc(O)cc(O)c3c2=O)C(OC2OC(C)C(O)C(O)C2O)C(OC(C)=O)C1OC(C)=O [Compound 2, Kaempferol 3-O-α-L-rhamnosyl-(1 → 2)-(3″,4″-diacetyl-β-D-glucuronatemethyl ester)]	22.77 ± 1.85%	22.77 ± 1.85 %	6.42 ± 0.12 mg/L	93.04 ± 0.10%	93.04 ± 0.10%	stronger inhibitory effects than positive control (kojic acid)	no toxicity			
COc1cc(CCC(=O)CC(O)CCc2ccc(O)c(OC)c2)ccc1O (centres unmarked) [Compound 7, hexahydrocurcumin]	35.80 ± 0.77%	35.80 ± 0.77 %	13.17 ± 0.18 mg/L	91.09 ± 0.41%	91.09 ± 0.41 %	stronger inhibitory effects than positive control (kojic acid)	no toxicity			
O=C1O[C@H]([C@@H](O)CO)C(O)=C1O [Vitamin C, reference compound]	85.44 ± 0.34%	85.44 ± 0.34%						6.20 ± 0.41 mg/L	72.7%	
Cc1c(C)c2c(c(C)c1O)CCC(C)(C(=O)O)O2 (centres unmarked) [trolox, Trolox, reference compound]			31.61 ± 0.60 mg/L	92.69 ± 0.03%	92.69 ± 0.03%					91.6%

Reference: publication PMC11727410, “Identification of Chemical Constituents from Leaves and Stems of Alpinia oxyphylla: Potential Antioxidant and Tyrosinase Inhibitory Properties” (Antioxidants, 2024)
